Results taken from PMC7577125 (Antimicrobial Agents and Chemotherapy, 2020).
“And” between values parts separate entries of the source, which are not always exact repeats. Identical values can stand only once. Like-named read-outs stand apart in the source and are kept apart here.

Key:
HBV [1] = test: Dose response of ETV and ABI-H0731 alone and in combination in induced HepAD38 cells; type: cell-based, Hepatitis B virus
Procedure: Viral replication was evaluated by quantifying the levels of total HBV DNA in the cells by qPCR. […] In both cases, the data are plotted as a function of each drug’s concentration relative to its VR EC50.

HBV Cp Y38C = test: microbe, parasite or virus in culture; type: cell-based, Hepatitis B virus
HBV Cp Y118F = test: microbe, parasite or virus in culture; type: cell-based, Hepatitis B virus
CYP2C19 = molecular target: T1, CYP2C19 (Homo sapiens, UniProt P33261); test: CYP inhibition in human liver microsomes, 2C19; type: in vitro ADME; settings: 0.1–100 μM
T1 construct: in human liver microsomes; from tissue; host or cells: human liver microsomes
T1 sequence (P33261 whole entry): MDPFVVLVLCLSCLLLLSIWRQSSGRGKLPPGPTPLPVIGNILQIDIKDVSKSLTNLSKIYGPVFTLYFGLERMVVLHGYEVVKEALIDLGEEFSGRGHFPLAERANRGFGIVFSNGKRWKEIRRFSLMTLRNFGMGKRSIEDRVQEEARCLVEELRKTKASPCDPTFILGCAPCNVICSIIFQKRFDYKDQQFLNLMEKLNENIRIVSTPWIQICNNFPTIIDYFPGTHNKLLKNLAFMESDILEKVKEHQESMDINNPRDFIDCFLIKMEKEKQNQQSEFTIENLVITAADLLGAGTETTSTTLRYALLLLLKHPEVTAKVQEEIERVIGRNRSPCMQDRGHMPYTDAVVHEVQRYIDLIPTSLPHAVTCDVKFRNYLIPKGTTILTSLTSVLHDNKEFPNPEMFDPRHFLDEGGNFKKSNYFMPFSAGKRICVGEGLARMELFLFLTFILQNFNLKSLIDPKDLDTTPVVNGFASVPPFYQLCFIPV

CYP2B6 = molecular target: T2, CYP2B6 (Homo sapiens, UniProt P20813); test: CYP inhibition in human liver microsomes, 2B6; type: in vitro ADME; settings: 0.1–100 μM
T2 construct: in human liver microsomes; from tissue; host or cells: human liver microsomes
T2 sequence (P20813 whole entry): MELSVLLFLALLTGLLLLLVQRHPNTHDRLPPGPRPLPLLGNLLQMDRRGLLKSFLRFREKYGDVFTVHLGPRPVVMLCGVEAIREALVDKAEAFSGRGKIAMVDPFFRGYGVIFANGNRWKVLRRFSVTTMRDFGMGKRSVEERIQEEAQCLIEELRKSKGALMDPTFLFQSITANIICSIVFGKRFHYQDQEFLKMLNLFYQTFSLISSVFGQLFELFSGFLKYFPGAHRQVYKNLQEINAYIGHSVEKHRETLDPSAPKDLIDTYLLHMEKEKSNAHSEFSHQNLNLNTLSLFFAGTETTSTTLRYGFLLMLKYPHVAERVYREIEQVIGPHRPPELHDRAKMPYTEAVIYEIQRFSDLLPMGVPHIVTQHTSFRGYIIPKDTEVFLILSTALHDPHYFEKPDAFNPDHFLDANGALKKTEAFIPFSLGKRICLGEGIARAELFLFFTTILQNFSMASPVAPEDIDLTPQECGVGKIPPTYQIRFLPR

[2] = test system: HBV genotypes A, B, C, and D; test: microbe, parasite or virus in culture; type: cell-based; settings: Hepatitis B virus, read-out: VR EC50s
HBV Cp T33N = test: microbe, parasite or virus in culture; type: cell-based, Hepatitis B virus
HBV Cp Wild type = test: microbe, parasite or virus in culture; type: cell-based, Hepatitis B virus
CYP2D6 = molecular target: T3, CYP2D6 (Homo sapiens, UniProt P10635); test: CYP inhibition in human liver microsomes, 2D6; type: in vitro ADME; settings: 0.1–100 μM
T3 construct: in human liver microsomes; from tissue; host or cells: human liver microsomes
T3 sequence (P10635 whole entry): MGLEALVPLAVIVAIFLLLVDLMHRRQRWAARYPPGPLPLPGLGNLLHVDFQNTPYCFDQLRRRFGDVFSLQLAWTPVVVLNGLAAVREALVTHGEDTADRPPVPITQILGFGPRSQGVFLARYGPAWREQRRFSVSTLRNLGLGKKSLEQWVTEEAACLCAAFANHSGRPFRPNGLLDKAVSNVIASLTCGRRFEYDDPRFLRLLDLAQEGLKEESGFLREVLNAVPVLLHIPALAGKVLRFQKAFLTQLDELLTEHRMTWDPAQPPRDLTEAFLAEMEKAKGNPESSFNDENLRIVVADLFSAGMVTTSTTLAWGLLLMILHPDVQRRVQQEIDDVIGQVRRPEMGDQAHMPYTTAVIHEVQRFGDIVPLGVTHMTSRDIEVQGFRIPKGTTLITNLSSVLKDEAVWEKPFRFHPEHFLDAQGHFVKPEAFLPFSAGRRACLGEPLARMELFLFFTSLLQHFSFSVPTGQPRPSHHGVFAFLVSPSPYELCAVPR

HBV [3] = test system: HBV; set-up: method as in PMID 31711752; settings: HBeAg-negative patient, day 28 of monotherapy; cited from earlier work
HBV [4] = test: HBV RNA/DNA analyses in induced HepAD38 cells (Northern/Southern blot); type: cell-based, Hepatitis B virus; settings: for activity at 2 µM: Hepatitis B virus, HePAD38
HBV genotype C = test: microbe, parasite or virus in culture; type: cell-based; settings: Hepatitis B virus, read-out: Mean antiviral EC50
in vitro [5] = settings: mouse, plasma
HBV [6] = test: De novo infection models (HepG2-NTCP and PHH), summary; type: cell-based, Hepatitis B virus; settings: Hepatitis B virus; range over two de novo infection models; read-out: EC50, suppression of cccDNA formation
[7] = test system: NrtI^R HBV (rtL180M/M204V); test: microbe, parasite or virus in culture; type: cell-based, Hepatitis B virus
[8] = human, rat, cynomolgus monkey
Procedure: In vitro intrinsic clearance (CLint) was determined as follows. […] The calculated CLint was determined from the relationship CLint = k × (volume of incubation in ml/mg microsomal protein) × (mg protein in liver/g liver weight) × (g liver weight/kg body weight). The values for liver weights, body weights, as well as hepatic blood flows (QH) across species were obtained from data reported previously by Davies and Morris ([28]). Values for liver microsome protein/liver weight for mouse, rat, dog, and monkey were […] ([27]), and that for human was 33 mg/g. The calculation used for the prediction of hepatic clearance (CLpred) is CLpred = (QH × CLint)/(QH + CLint).

HBV Cp I105T = test: microbe, parasite or virus in culture; type: cell-based, Hepatitis B virus
CYP1A2 = CYP1A2 (Homo sapiens, UniProt P05177); test: biochemical
Chain of CYP1A2 (P05177 whole entry): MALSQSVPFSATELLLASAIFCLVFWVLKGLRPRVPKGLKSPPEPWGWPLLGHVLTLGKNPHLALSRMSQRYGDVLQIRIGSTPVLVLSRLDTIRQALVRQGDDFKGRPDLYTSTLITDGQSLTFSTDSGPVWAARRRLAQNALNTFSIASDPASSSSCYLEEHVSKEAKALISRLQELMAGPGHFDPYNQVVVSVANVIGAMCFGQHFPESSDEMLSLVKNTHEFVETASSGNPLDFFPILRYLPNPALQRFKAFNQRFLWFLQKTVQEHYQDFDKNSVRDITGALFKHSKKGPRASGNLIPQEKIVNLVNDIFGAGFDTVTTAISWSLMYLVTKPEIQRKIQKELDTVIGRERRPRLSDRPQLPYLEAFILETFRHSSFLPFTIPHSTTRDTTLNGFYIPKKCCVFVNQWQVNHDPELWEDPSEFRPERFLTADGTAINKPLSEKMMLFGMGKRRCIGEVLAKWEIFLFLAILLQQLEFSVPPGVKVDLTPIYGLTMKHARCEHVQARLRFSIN

[9] = molecular target: pregnane X receptor (PXR) (Homo sapiens, UniProt O75469); test: PXR activation / CYP3A4 induction in DPX2 cells; type: in vitro ADME; settings: 24 h
Chain of pregnane X receptor (PXR) (O75469 whole entry): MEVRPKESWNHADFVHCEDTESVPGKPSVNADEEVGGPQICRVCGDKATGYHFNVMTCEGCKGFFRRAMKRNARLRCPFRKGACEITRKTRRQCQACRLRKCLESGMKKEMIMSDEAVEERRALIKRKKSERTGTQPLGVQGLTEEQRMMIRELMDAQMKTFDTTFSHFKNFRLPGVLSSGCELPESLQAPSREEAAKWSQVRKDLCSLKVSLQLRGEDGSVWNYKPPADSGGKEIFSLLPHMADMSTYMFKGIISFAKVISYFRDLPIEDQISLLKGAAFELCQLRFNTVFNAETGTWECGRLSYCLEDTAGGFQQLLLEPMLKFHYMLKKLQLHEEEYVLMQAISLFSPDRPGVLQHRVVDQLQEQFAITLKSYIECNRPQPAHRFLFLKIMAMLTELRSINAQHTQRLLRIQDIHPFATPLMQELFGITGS
Procedure: The determination of CYP induction potential was conducted using CPX2 cells that harbor the human PXR gene and a luciferase reporter gene linked to two promoters identified in the human 3A4 gene.

[10] = molecular target: HBV Cp (3CA Cp150-BODIPY) (Hepatitis B virus genotype D subtype adw, UniProt P03147, C107A/C48A/C61A/R150C); test: HBV Cp in vitro assembly assay (fluorescence quenching)
Chain of HBV Cp (3CA Cp150-BODIPY) (P03147 1-150 C48A/C61A/C107A/R150C): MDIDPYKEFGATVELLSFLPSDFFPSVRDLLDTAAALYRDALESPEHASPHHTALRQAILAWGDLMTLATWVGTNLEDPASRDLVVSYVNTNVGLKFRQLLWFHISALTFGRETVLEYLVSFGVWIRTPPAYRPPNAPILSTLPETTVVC

HBV [11] = test: Extracellular HBV DNA and pgRNA in HepAD38 cells (qPCR, RT-qPCR); type: cell-based, Hepatitis B virus
Source text: For HBV RNA Northern blot analysis, total cellular RNA or encapsidated pgRNA samples were resolved in a 1.5% agarose gel containing 2.2 M formaldehyde and transferred onto a Hybond-XL membrane (GE Healthcare). For DNA Southern blot analysis, HBV core DNA or cccDNA samples were resolved by electrophoresis in a 1.2% agarose gel and blotted onto a Hybond-XL membrane. Membranes were probed with either an [α-^32P]UTP (3,000 Ci/mmol; PerkinElmer)-labeled plus-strand-specific (for Northern blot hybridization) or minus-strand-specific (for Southern blot hybridization) HBV riboprobe and exposed to a phosphorimager screen. Extracellular HBV DNA and RNA were copurified from the culture medium of induced HepAD38 cells by using a MinElute virus vacuum kit (Qiagen). Viral DNA was quantified using the above-mentioned qPCR method directly, and HBV RNA was detected by RT-qPCR with the same core region primer/probe set after the removal of DNA contamination by DNase I (Thermo Fisher) treatment.

CYP2C8 = CYP2C8 (Homo sapiens, UniProt P10632); test: biochemical
Chain of CYP2C8 (P10632 whole entry): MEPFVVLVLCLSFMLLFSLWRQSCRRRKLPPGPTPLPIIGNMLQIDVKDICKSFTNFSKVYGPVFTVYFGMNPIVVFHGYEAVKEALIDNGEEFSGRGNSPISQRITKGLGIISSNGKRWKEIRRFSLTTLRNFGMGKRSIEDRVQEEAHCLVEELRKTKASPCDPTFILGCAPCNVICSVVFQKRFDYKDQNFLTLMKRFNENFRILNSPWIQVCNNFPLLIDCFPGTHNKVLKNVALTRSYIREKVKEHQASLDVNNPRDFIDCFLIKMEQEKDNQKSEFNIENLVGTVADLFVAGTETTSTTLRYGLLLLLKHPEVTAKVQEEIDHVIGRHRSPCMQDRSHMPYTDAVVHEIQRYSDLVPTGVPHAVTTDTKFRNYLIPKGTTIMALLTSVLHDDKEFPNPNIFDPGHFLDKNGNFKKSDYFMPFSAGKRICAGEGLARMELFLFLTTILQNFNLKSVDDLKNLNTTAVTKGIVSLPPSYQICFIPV

HBV genotype B = test: microbe, parasite or virus in culture; type: cell-based; settings: Hepatitis B virus, read-out: Mean antiviral EC50
CYP2C9 = molecular target: T4, CYP2C9 (Homo sapiens, UniProt P11712); test: CYP inhibition in human liver microsomes, 2C9; type: in vitro ADME; settings: 0.1–100 μM
T4 construct: in human liver microsomes; from tissue; host or cells: human liver microsomes
T4 sequence (P11712 whole entry): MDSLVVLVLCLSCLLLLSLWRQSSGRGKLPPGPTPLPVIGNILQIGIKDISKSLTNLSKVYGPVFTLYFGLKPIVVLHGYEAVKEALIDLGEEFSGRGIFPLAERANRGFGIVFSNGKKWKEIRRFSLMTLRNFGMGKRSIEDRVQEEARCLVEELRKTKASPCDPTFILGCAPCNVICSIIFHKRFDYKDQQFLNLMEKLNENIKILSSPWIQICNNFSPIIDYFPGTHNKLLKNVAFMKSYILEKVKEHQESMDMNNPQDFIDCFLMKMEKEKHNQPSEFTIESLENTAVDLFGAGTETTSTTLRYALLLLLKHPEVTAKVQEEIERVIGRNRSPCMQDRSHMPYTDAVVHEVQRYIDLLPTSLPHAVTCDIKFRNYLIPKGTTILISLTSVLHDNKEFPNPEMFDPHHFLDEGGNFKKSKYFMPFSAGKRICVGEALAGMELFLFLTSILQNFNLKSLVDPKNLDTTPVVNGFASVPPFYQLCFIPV

HBV Cp I105L = test: microbe, parasite or virus in culture; type: cell-based, Hepatitis B virus
in vitro [12] = settings: human, plasma
[13] = Hepatitis B virus, Huh-7, read-out: Mean EC50
[14] = HepAD38, concn ETV 0.01, ABI-H0731 2.0, GLS4 0.5, NVR 3-778 2.5, AT-130 0.8, VRD-32 0.8 μM

With O=C(NCc1cnc(C(F)(F)F)s1)c1ccc2c(c1)NC(=O)c1ccccc1S2(=O)=O [ABI-H0731] the “HBV DNA levels” value (HBV [1]; 60× VR EC50 (10 μM ABI-H0731), control 2.2 × 10^6) was 2.1 × 10^3 copies/μl, the “inhibition of HBV DNA replication” value (HBV [1]; 60× VR EC50 (10 μM)) was ~3 logs and the inhibition at 1.7 µM (HBV [1]; Hepatitis B virus, HePAD38, 96 h, read-out: inhibition of HBV replication) was 98%. For the same molecule, the EC50 (HBV Cp Y38C; [13]) was 224 ± 50 nM, the Fold shift (HBV Cp Y38C; Y38C vs wild type) was 1.5 fold and the EC50 (HBV Cp Y118F; [13]) was 2070 nM. For the same molecule, the Fold shift (HBV Cp Y118F; Y118F vs wild type) was 14 fold, the IC50 (CYP2C19) was 42.8 µM and the IC50 (CYP2B6) was 27.7 µM. It also gave an EC50 [2] of 86 to 142 nM, an EC50 (HBV Cp T33N; [13]) of 3.06 µM and a Fold shift (HBV Cp T33N; T33N vs wild type) of 21 fold. It also gave an EC50 (HBV Cp Wild type; [13]) of 146 ± 21 nM, a Fold shift (HBV Cp Wild type; Wild type) of 1 fold and an IC50 (CYP2D6) of 29.6 µM. The “decline in viral load in a patient harboring T109M at baseline” value (HBV [3]) was 1.0 log and 1 log, the “Levels of encapsidated pgRNA by Northern blotting” value (HBV [4]; HepAD38, 10-fold over VR EC50) was “virtually undetectable” and the “rcDNA detection by Southern blot” value (HBV [4]; HepAD38, 10-fold over VR EC50) was “could not be detected”. For the same molecule, the activity at 2 µM (HBV [4]; read-out: Capsid DNA % of Control) was 10%, the activity at 2 µM (HBV [4]; read-out: DNA % of Control (extracted HBV DNA replication intermediates)) was 1% and the activity at 2 µM (HBV [4]; read-out: Encapsidated pgRNA % of Control) was 4%. For the same molecule, the EC50 (HBV genotype C) was 88.2 ± 27 nM, the fraction unbound at 6 h (in vitro [5]) was 0.03 to 0.034 and the EC50 (HBV [6]) was 1.84 to 7.3 µM. For the same molecule, the Fold shift ([7]; HepG2-NrtI^R versus HepAD38 (wild type)) was 1.2 fold, the EC50 ([7]; Hepatitis B virus, 96 h, read-out: Mean EC50) was 262 ± 97 nM and the “CLpred as % of liver blood flow” value ([8]; mouse, 0.5 μM) was 12-21%. For the same molecule, the CLpred ([8]; 1 μM) was 2.3 to 21 mL/min/kg, the “CLpred as % of liver blood flow” value ([8]; 1 μM) was 11-32% and the EC50 (HBV Cp I105T; [13]) was 324 ± 20 nM. The Fold shift (HBV Cp I105T; I105T vs wild type) was 2.2 fold, the IC50 (CYP1A2) was > 100 µM and the “PXR activation activity, % of the control activity” value ([9]; 10 μM) was 29%. The “PXR activation activity, % of the control activity” value ([9]; 40 μM) was 68%, the IC50 [10] was 267 nM and the “secretion of HBV RNA and DNA in the culture medium” value (HBV [11]; HepAD38, 10-fold over VR EC50) was ≤ 3 % of the DMSO control. For the same molecule, the “Extracellular DNA content (% of DMSO control)” value (HBV [11]; [14]) was 1.4 % of DMSO control, the “Extracellular pgRNA content (% of DMSO control)” value (HBV [11]; [14]) was 3.1 % of DMSO control and the IC50 (CYP2C8) was 27.2 µM. The EC50 (HBV genotype B) was 85.5 ± 10.9 nM, the IC50 (CYP2C9) was 30.7 µM and the EC50 (HBV Cp I105L; [13]) was 41 ± 6 nM. It also gave a Fold shift (HBV Cp I105L; I105L vs wild type) of 0.3 fold, a fraction unbound at 6 h, 3 μM (in vitro [12]) of 0.031 and a fraction unbound at 6 h, 10 μM (in vitro [12]) of 0.034. It also gave a fraction unbound at 6 h, 30 μM (in vitro [12]) of 0.024.
